In ChEMBL document CHEMBL6120974, “Hydrazide-Based Class I Selective HDAC Inhibitors Completely Reverse Chemoresistance Synergistically in Platinum-Resistant Solid Cancer Cells” (J Med Chem, 2024):
Calls of active or inactive are those of the source. No cut-off for these calls is given here.

Tests used:
CAL-27 [1] = experiment: Induction of apoptosis in human CAL-27 cells assessed as caspase-3/7 activation at 0.5 uM incubated for 48 hrs by capase3/7 green dye based analysis relative to control; type: functional
[2] = Cytotoxicity against human HEK293 cells assessed as reduction in cell viability incubated for 72 hrs by MTT assay; type: toxicity, cell-based
[3] = Induction of apoptosis in cisplatin resistant human Cal27CisR cells assessed as caspase-3/7 activation at 0.5 uM incubated for 48 hrs by capase3/7 green dye based analysis relative to control; type: functional
A2780 [4] = experiment: Induction of apoptosis in human A2780 cells assessed as caspase-3/7 activation at 2 uM incubated for 48 hrs by capase3/7 green dye based analysis relative to control; type: functional
cells = settings: Homo sapiens, Cal27CisR, 72 h
Description: Cytotoxicity against cisplatin resistant human Cal27CisR cells assessed as reduction in cell viability incubated for 72 hrs by MTT assay

A2780cisR [5] = experiment: cells; settings: Homo sapiens, 72 h
CAL-27 [6] = experiment: cells; settings: Homo sapiens, CAL-27, 72 h
Description: Cytotoxicity against human CAL-27 cells assessed as reduction in cell viability incubated for 72 hrs by MTT assay

HL-60 = experiment: cells; settings: Homo sapiens, HL-60, 72 h
Description: Cytotoxicity against human HL-60 cells harboring p53 null assessed as cell viability incubated for 72 hrs by MTT assay

MV4-11 = experiment: cells; settings: Homo sapiens, MV4-11, 72 h
Description: Cytotoxicity against human MV4-11 cells harboring wild type p53 assessed as cell viability incubated for 72 hrs by MTT assay

A2780cisR [7] = experiment: Induction of apoptosis in cisplatin resistant human A2780 cisR cells assessed as caspase-3/7 activation at 2 uM incubated for 48 hrs by capase3/7 green dye based analysis relative to control; type: functional
Histone deacetylase 1 [8] = target: T1, Histone deacetylase 1 (Homo sapiens, UniProt Q13547); experiment: Inhibition of FLAG tagged full length human HDAC1 expressed in HEK293T cells using acyl-H3K9 peptide as substrate preincubated with compound for 20 mins followed by substrate addition and measured after 120 mins by HPLC analysis
Histone deacetylase 8 [9] = target: T2, Histone deacetylase 8 (Homo sapiens, UniProt Q9BY41); experiment: Inhibition of FLAG tagged full length human HDAC8 expressed in HEK293T cells using acyl-H3K9 peptide as substrate preincubated with compound for 20 mins followed by substrate addition and measured after 120 mins by HPLC analysis; type: cell-based
T2 sequence (Q9BY41 whole entry): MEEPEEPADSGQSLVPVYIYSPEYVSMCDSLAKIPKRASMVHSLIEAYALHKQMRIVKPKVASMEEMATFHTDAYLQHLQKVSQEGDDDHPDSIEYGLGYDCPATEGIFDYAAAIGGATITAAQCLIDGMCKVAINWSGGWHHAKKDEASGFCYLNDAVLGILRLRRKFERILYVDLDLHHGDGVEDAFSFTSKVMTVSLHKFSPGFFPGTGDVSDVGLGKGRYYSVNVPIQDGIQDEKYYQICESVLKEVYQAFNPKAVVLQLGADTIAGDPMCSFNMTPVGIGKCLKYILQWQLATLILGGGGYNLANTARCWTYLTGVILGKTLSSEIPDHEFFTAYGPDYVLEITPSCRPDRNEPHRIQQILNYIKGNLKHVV

Histone deacetylase 4 [10] = target: T3, Histone deacetylase 4 (Homo sapiens, UniProt P56524); experiment: Inhibition of FLAG tagged full length human HDAC4 expressed in HEK293T cells using acyl-H3K9 peptide as substrate preincubated with compound for 20 mins followed by substrate addition and measured after 120 mins by HPLC analysis
Histone deacetylase 1 [11] = target: T1, Histone deacetylase 1; experiment: (§1) Inhibition of C-terminal 6-his/FLAG tagged full length human recombinant HDAC1 (1 to 482 end residues) expressed in sf9 cells at 10 uM using ZMAL (Z-Lys(Ac)-AMC as fluorogenic substrate preincubated with compound for 60 mins followed by substrate addition and measured after 90 mins by fluorescence based microplate reader analysis relative to control; settings: time 150.0 min
A2780 [12] = experiment: Cytotoxicity against human A2780 cells at < 100 uM assessed as reduction in cell viability incubated for 72 hrs by MTT assay; type: functional, cell-based
[13] = target: T4, Protein deacetylase HDAC6 (Homo sapiens, UniProt Q9UBN7); experiment: (§2) Inhibition of N-terminal GST-tagged full length recombinant human HDAC6 (1 to 1215 end residues) expressed in sf9 cells using ZMAL (Z-Lys(Ac)-AMC as fluorogenic substrate preincubated with compound for 60 mins followed by substrate addition and measured after 90 mins by fluorescence based microplate reader analysis
T4 sequence (Q9UBN7 whole entry): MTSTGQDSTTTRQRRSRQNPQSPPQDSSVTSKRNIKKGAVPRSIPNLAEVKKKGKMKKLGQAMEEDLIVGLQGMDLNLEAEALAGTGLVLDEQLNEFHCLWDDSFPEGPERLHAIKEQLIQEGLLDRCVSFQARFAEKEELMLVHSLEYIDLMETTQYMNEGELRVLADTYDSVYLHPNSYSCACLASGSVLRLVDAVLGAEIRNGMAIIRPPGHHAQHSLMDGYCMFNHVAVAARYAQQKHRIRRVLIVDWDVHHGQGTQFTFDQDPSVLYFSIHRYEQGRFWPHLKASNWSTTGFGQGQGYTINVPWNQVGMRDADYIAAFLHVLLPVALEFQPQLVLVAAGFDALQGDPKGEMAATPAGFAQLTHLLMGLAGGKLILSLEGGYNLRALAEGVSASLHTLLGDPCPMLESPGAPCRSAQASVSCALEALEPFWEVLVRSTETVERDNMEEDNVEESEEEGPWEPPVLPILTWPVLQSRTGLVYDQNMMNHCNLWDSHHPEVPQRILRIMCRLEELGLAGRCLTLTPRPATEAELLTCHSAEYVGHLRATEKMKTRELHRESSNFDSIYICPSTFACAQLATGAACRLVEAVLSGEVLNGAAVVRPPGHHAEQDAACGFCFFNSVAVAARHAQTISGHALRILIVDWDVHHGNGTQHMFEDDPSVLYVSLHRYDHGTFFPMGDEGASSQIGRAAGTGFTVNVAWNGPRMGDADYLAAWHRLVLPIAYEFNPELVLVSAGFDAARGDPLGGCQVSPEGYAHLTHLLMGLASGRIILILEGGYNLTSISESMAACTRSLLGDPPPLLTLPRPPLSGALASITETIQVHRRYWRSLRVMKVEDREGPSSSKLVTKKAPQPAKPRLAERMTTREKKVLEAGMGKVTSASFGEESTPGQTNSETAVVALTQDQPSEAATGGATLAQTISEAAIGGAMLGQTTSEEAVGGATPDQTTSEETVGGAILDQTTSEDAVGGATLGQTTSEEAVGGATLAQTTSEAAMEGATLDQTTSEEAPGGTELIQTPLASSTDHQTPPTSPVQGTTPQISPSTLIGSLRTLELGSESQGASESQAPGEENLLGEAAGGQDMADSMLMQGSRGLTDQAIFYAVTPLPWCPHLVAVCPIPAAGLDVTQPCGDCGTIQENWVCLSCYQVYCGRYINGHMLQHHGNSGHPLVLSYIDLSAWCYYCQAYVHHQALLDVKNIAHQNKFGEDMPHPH

Cal27CisR [14] = experiment: Inhibition of class I/6 HDAC (unknown origin) in cisplatin resistant human Cal27CisR cells at < 10 uM using Boc-Lys(epsilon-Ac)-AMC as substrate preincubated with compound for 18 hrs followed by substrate addition and measured after 3 hrs by NOVOstar microplate reader analysis; type: cell-based
[15] = target: Histone deacetylase 3/Nuclear receptor corepressor 2 (HDAC3/NCoR2) (Homo sapiens) (UniProt O15379+Q9Y618); experiment: as §1, with “His” for “6-his/FLAG”, “tagged” for “tagged full length”, “HDAC3” for “HDAC1”, “428” for “482”, “residues)/N-terminal GST-tagged human NcoR2” for “residues)”; settings: time 150.0 min
CAL-27 [16] = experiment: Inhibition of class I/6 HDAC (unknown origin) in human CAL-27 cells at < 10 uM using Boc-Lys(epsilon-Ac)-AMC as substrate preincubated with compound for 18 hrs followed by substrate addition and measured after 3 hrs by NOVOstar microplate reader analysis; type: cell-based
[17] = target: T5, Histone deacetylase 8 (Homo sapiens) (UniProt Q9BY41); experiment: Inhibition of recombinant HDAC8 (unknown origin) at > 10 uM using Bos-Lys(TFA)-AMC as substrate preincubated with compound for 5 mins and measured after 90 mins by NOVOstar microplate reader analysis relative to control; settings: time 95.0 min
T5 sequence (whole entry): T2 sequence (Q9BY41 whole entry)

A2780 [18] = experiment: Inhibition of class I/6 HDAC (unknown origin) in human A2780 cells at < 10 uM using Boc-Lys(epsilon-Ac)-AMC as substrate preincubated with compound for 18 hrs followed by substrate addition and measured after 3 hrs by NOVOstar microplate reader analysis; type: cell-based
Cal27CisR [19] = experiment: Cytotoxicity against cisplatin resistant human Cal27CisR cells at < 10 uM assessed as reduction in cell viability incubated for 72 hrs by MTT assay; type: functional, cell-based
Histone deacetylase 4 [20] = target: T3, Histone deacetylase 4; experiment: Inhibition of recombinant HDAC4 (unknown origin) using Bos-Lys(TFA)-AMC as substrate preincubated with compound for 5 mins and measured after 90 mins by NOVOstar microplate reader analysis
A2780cisR [21] = experiment: Cytotoxicity against cisplatin resistant human A2780 cisR cells at < 100 uM assessed as reduction in cell viability incubated for 72 hrs by MTT assay; type: functional, cell-based
A2780 cisR = experiment: Inhibition of class I/6 HDAC (unknown origin) in cisplatin resistant human A2780 cisR cells at < 10 uM using Boc-Lys(epsilon-Ac)-AMC as substrate preincubated with compound for 18 hrs followed by substrate addition and measured after 3 hrs by NOVOstar microplate reader analysis; type: cell-based
CAL-27 [22] = experiment: Cytotoxicity against human CAL-27 cells at < 100 uM assessed as reduction in cell viability incubated for 72 hrs by MTT assay; type: functional, cell-based
Histone deacetylase 8 [23] = target: T2, Histone deacetylase 8; experiment: Inhibition of recombinant HDAC8 (unknown origin) using Bos-Lys(TFA)-AMC as substrate preincubated with compound for 5 mins and measured after 90 mins by NOVOstar microplate reader analysis
[24] = target: Histone deacetylase 2 (Homo sapiens) (UniProt Q92769); experiment: Inhibition of C-terminal FLAG tagged full length human recombinant HDAC2 (1 to 488 end residues) expressed in sf9 cells at > 10 uM using ZMAL (Z-Lys(Ac)-AMC as fluorogenic substrate preincubated with compound for 60 mins followed by substrate addition and measured after 90 mins by fluorescence based microplate reader analysis relative to control
[25] = target: T6, Protein deacetylase HDAC6 (Homo sapiens) (UniProt Q9UBN7); experiment: as §2, with “cells at > 10 uM” for “cells”, “analysis relative to control” for “analysis”; settings: time 150.0 min
T6 sequence (whole entry): T4 sequence (Q9UBN7 whole entry)

[26] = Lipophilicity, logD of the compound in 1-octanol/PBS buffer at pH 7.4 by HPLC/UV analysis; type: physicochemical; settings: octanol/water
Histone deacetylase 3 = Histone deacetylase 3 (Homo sapiens, UniProt O15379); experiment: Inhibition of HDAC3 (unknown origin)
Chain of Histone deacetylase 3 (O15379 whole entry): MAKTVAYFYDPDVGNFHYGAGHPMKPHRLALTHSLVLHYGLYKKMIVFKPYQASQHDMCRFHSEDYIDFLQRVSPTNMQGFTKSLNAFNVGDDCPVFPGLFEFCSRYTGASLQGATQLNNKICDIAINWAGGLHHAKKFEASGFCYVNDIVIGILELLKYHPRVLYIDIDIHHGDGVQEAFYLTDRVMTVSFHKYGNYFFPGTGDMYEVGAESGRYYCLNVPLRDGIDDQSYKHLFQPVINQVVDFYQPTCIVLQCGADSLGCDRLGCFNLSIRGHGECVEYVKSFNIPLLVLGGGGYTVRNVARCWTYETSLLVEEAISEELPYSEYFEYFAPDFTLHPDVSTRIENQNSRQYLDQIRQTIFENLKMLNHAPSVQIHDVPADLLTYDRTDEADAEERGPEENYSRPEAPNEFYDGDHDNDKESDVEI

T3 sequence (P56524 whole entry): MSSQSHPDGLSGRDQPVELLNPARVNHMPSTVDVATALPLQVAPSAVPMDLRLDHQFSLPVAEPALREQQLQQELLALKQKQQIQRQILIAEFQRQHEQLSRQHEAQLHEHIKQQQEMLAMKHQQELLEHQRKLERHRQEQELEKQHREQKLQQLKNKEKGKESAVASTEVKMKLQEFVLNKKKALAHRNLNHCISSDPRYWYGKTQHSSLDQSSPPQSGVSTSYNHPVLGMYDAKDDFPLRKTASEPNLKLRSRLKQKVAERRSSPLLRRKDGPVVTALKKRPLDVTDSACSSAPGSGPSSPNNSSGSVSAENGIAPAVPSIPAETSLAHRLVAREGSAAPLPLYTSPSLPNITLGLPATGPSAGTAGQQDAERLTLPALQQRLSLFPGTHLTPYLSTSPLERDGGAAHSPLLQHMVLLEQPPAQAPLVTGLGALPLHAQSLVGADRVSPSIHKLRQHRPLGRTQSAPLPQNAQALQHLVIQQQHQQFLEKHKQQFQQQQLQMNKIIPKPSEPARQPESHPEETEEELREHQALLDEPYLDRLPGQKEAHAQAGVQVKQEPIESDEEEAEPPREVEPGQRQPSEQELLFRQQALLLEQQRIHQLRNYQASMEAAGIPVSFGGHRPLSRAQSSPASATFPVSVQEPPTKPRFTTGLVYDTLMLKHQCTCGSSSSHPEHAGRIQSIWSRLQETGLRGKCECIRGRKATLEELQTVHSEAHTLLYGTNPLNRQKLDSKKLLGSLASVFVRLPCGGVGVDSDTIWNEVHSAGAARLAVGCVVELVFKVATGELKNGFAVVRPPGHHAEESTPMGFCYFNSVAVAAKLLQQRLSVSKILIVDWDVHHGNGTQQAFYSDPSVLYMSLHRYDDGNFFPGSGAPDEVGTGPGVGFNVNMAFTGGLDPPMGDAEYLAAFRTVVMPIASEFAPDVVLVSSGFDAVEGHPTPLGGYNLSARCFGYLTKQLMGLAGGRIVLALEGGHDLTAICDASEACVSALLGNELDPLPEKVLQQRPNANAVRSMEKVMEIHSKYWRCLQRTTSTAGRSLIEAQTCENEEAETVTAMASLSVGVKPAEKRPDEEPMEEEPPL
T1 sequence (Q13547 whole entry): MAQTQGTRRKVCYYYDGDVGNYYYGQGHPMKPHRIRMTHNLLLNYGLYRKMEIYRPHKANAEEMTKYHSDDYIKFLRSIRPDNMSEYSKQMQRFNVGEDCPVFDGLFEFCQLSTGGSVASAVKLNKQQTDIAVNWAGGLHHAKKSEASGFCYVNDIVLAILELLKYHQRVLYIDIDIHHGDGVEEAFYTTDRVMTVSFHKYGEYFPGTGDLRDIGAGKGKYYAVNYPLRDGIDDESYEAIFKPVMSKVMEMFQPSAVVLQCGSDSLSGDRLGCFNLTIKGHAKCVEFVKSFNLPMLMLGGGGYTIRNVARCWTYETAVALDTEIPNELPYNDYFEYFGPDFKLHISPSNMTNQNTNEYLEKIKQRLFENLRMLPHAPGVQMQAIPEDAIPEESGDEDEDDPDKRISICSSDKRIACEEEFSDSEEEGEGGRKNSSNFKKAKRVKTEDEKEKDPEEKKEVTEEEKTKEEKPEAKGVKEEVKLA
Chain of Histone deacetylase 2 (Homo sapiens) (Q92769 whole entry): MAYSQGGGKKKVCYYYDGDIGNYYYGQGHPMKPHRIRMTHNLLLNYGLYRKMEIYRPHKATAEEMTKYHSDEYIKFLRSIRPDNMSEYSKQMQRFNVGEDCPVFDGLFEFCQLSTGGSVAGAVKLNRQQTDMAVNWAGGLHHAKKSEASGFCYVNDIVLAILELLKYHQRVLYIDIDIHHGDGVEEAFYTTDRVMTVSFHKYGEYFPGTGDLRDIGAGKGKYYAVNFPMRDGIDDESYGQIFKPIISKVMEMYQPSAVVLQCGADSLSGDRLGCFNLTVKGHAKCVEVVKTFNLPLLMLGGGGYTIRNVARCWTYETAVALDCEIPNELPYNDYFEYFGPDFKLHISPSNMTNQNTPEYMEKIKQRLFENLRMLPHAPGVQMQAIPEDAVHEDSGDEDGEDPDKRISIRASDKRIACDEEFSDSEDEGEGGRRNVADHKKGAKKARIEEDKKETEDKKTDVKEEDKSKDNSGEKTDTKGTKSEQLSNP

With `Nc1ccccc1NC(=O)c1ccc(CNC(=O)OCc2cccnc2)cc1` [ENTINOSTAT] the Activity (CAL-27 [1]) was under 5%, the IC50 at 72 h [2] was 7.11 µM and the Activity [3] was under 5%. For the same molecule, the Activity (A2780 [4]) was 10%, the IC50 (cells) was 3.63 µM and the IC50 (A2780cisR [5]) was 5.57 µM. It also gave an IC50 (CAL-27 [6]) of 2.96 µM, an IC50 (HL-60) of 0.939 µM and an IC50 (MV4-11) of 0.41 µM. For the same molecule, the Activity (A2780cisR [7]) was 15%.

`CCCCCCCCCCCCCCCCNNC(=O)c1cccs1` showed an IC50 (Histone deacetylase 1 [8]) of over 100 µM, an IC50 (Histone deacetylase 8 [9]) of over 100 µM and an IC50 (Histone deacetylase 4 [10]) of over 100 µM.

With `CN(C)c1ccc(C(=O)N(CC(=O)NCc2ccccc2)Cc2ccc(C(=O)NNC/C=C/c3ccccc3)cc2)cc1` the inhibition (Histone deacetylase 1 [11]) was 37%, the Activity (A2780 [12]) was “inactive” and the IC50 [13] was over 10 µM. For the same molecule, the inhibition (Cal27CisR [14]) was “inactive”, the inhibition [15] was 32% and the inhibition (CAL-27 [16]) was “inactive”. The inhibition [17] was under 25%, the inhibition (A2780 [18]) was “inactive” and the Activity (Cal27CisR [19]) was “inactive”. The IC50 (Histone deacetylase 4 [20]) was over 10 µM, the Activity (A2780cisR [21]) was “inactive” and the inhibition (A2780 cisR) was “inactive”. The Activity (CAL-27 [22]) was “inactive”, the IC50 (Histone deacetylase 8 [23]) was over 10 µM and the inhibition [24] was under 25%. The inhibition [25] was under 25%.

Molecule `CN(C)c1ccc(C(=O)N(CC(=O)NCc2ccccc2)Cc2ccc(C(=O)Nc3cc(-c4ccncc4)ccc3N)cc2)cc1` has a logD [26] of 3.16 and an IC50 (Histone deacetylase 3) of over 6.67 µM.
